Assays:
NET = assay: [3H]Norepinephrine uptake inhibition in rat brain synaptosomes; type: biochemical; details: NE
Protocol: Materials used were: Neurotransmitters [3H]5-HT (PerkinElmer, NET498001MC) [^3H]Dopamine (PerkinElmer, NET673250UC) [^3H]Norepinephrine (PerkinElmer, NET377250UC); Test Compounds Racemic methylone HCl (Merck, M-140); (R)-methylone HCl (Pisgah Labs); (S)-methylone HCl (Pisgah Labs); Reference Compounds Citalopram (Tocris Bioscience 1427). JHW007 (Tocris Bioscience 4351). Nomifensine (Abcam ab146004).
Synaptosomes were prepared from Sprague Dawley (200-250 g) rat brain regions (hippocampus for NE, striatum for DA and midbrain for 5-HT) using standard protocols. Tissues were dissected, added to sucrose buffer (0.32 M), homogenized with a dounce-homogenizer and centrifuged at 100×g to remove cells and debris. Supernatant was collected and centrifuged 17,000×g for 10 minutes at 4° C. to pellet the synaptosomes. The pellet was resuspended in fresh assay buffer.
Uptake assays were carried out in 96-well plates in a final volume of 250 μL per well. To each well was added 150 μL synaptosomes, 50 μL test, non-specific compound or buffer alone. The plate was incubated at 30° C. for 30 minutes with gentle agitation. 50 μL radiolabeled neurotransmitter in buffer was then added to each well to initiate the uptake. The plate was incubated at 30° C. for a further 5 minutes with gentle agitation. The incubation was stopped by vacuum filtration onto presoaked GF/C filters using a 96-well FilterMate™ harvester, followed by 3 washes with ice-cold wash buffer. Filters were then dried under a warm air stream, sealed in polyethylene, scintillation cocktail added, and the radioactivity counted in a Wallac® TriLux 1450 MicroBeta counter.
For each concentration of drug, non-specific uptake was subtracted from total uptake to give specific uptake. Data was fitted using the non-linear curve fitting routines in Prism® (Graphpad Software Inc) to determine IC50.

[1] = tested on: rat forced swim test (FST); assay: Rat forced swim test (FST); type: in vivo; details: single dose 10 mg/kg IP, 30 min before testing
Protocol: All FST studies are performed and scored by an experimenter blind to treatment group and according to standard protocols. Briefly, rats are placed in a circular plexiglass container filled with water. Water temperature is maintained at 22-25° C. and changed for every animal. Day 1 (Training) consists of a 15 min acclimation trial, and Day 2 (Testing, 24 h later) consists of the 5 min test. A time sampling procedure is employed where animals are observed every 5 seconds for the duration of the test session (60 counts or 5 minutes) and scored for immobility (defined as the failure to struggle), swimming (defined as a circular movement around the tank), or climbing (defined as an upwards escape behavior). Data are expressed as the percent of the testing session (e.g., the number of immobility counts divided by 60). A p-value less than 0.05 indicates statistical significance after typical statistical analyses (e.g., unpaired t-test or ANOVA).
To determine that the prodrug and/or enantiomer has an antidepressant-like effect and to compare it to methylone, rats are treated with each compound 30 min prior to testing. Additional tests are run 24, 72, 168 hours post-dose or longer.
Racemic methylone (10 mg/kg, IP) has a maximal antidepressant-like effect in the rat forced swim test (FST), reducing immobility by nearly 100% compared to vehicle treated controls. To determine whether one enantiomer of methylone could mimic the robust antidepressant-like effect of racemic methylone, rats were treated with a single dose of racemic methylone, (R)-methylone, (S)-methylone (all 10 mg/kg, IP) or vehicle 30 min before testing in the FST. […] Therefore, all of the activity of methylone appears to be driven by the activity of one enantiomer ((S)-methylone).

hNav1.5 = hNav1.5 (Homo sapiens (Human), UniProt Q14524); assay: hNav1.5 Sodium Channel Assay (peak), Qube APC; type: cell-based; details: Nav1.5, Antagonist mode, test compound
Protocol: (§1) Where presented, IC50 values were determined by a non-linear, least squares regression analysis.
(§2) Recombinant HEK-293 cells stably transfected with human Nav1.5 cDNA, recombinant HEK293 cell line expressing the human Cav1.2 (L-type voltage gated calcium channel, hCav1.2 α1C/β2a/α2δ1, and recombinant CHO-K1 cells stably transfected with human hERG cDNA were used separately in each of these assays.
hNav1.5 Sodium Channel Assay—Qube APC Onset and steady state block of peak Nav1.5 current is measured using a pulse pattern, repeated every 5 sec, consisting of a hyperpolarizing pulse to −120 mV for a 200 ms duration, depolarization to −15 mV amplitude for a 40 ms duration, followed by step to 40 mV for 200 ms and finally a 100 ms ramp (1.2 V/s) to a holding potential of −80 mV. Peak current is measured during the step to −15 mV.

hCav1.2 = hCav1.2 (Homo sapiens (Human), UniProt Q13936); assay: hCav1.2 (L-type) Calcium Channel Assay, Qube APC; type: cell-based; details: Cav1.2, Antagonist mode, test compound
Protocol: as §1, §2
hCav1.2 (L-type) Calcium Channel Assay—Qube APC After whole cell configuration is achieved, the cells are held at −90 mV. Cav1.2 currents are evoked by a 50 ms pulse to −100 mV followed by a 200 ms pulse to +20 mV before returning to the holding potential of −90 mV. This paradigm is delivered three times every 60 s to monitor the current amplitude.

hKCNQ1/hminK = hKCNQ1/hminK (Homo sapiens (Human), UniProt P51787); assay: hKCNQ1/hminK Potassium Channel Assay, Qube APC; type: cell-based; details: KCNQ1/mink, Antagonist mode, test compound
Protocol: (§3) Electrophysiological assays were conducted to profile three compounds ((R)-methylone, (S)-methylone, or racemic methylone) for activities on the ion channel targets specified below using the Qube electrophysiological platform. Where presented, IC50 values were determined by a non-linear, least squares regression analysis. Reference standards were run as an integral part of each assay to ensure the validity of the results obtained.
(§4) Ion Channels tested were Eurofins Panel Part Number: CPROFullQB2DR Voltage-Gated Sodium: HEK-Nav1.5 (Peak), HEK-Nav1.5 (Late, Antagonist) Voltage-Gated Potassium: HEK-Kv4.3/KChIP2, CHO-hERG, CHO-KCNQ1/minK Voltage-Gated Calcium: HEK-Cav1.2 Inward-Rectifying Voltage-Gated Potassium: HEK-Kir2.1.
hKCNQ1/hminK Potassium Channel Assay—Qube APC After whole cell configuration is achieved, the cells are held at −80 mV. KCNQ1/minK currents are evoked by a 1000 ms pulse from −80 mV to 60 mV followed by a ramp from 60 mV to −80 mV over 115 ms with the outward peak currents measured upon depolarization of the cell membrane. This paradigm is delivered once every 15 s to monitor the current amplitude.

hKir2.1 = hKir2.1 (Homo sapiens (Human), UniProt P63252); type: cell-based; details: Kir2.1, Antagonist mode, test compound
Chain of hKir2.1 (P63252 whole entry): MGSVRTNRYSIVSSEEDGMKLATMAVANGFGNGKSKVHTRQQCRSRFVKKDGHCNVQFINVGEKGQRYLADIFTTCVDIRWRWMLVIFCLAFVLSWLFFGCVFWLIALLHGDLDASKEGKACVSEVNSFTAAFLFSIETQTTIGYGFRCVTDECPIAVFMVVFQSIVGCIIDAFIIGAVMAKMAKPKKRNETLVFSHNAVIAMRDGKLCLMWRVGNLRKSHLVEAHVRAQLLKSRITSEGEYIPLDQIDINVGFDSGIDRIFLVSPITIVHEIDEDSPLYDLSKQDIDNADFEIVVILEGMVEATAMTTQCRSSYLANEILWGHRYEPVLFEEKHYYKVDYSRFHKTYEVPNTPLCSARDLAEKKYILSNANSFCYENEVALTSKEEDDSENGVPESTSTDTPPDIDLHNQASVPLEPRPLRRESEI
Protocol: as §3, §4
hKir2.1 Potassium Channel Assay—Qube APC After whole cell configuration is achieved, the cells are held at −30 mV. Kir2.1 currents are evoked by a single 500 ms pulse to −120 mV before returning to the holding potential of −30 mV. This paradigm is delivered once every 20 s to monitor the current amplitude.

| Structure (SMILES) | IC50 (NET) | Antidepressant-like effect in the FST [1] | Estimated IC50 (hNav1.5) | Estimated IC50 (hCav1.2) | Estimated IC50 (hKCNQ1/hminK) | Estimated IC50 (hKir2.1) |
| --- | --- | --- | --- | --- | --- | --- |
| CN[C@H](C)C(=O)c1ccc2c(c1)OCO2 [(R)-methylone] | 242 nM | no effect | N/C (N/C indicates observed mean inhibition was <25%) | N/C (N/C indicates observed mean inhibition was <25%) | N/C (N/C indicates observed mean inhibition was <25%) | N/C (N/C indicates observed mean inhibition was <25%) |
| CN[C@@H](C)C(=O)c1ccc2c(c1)OCO2 [(S)-methylone] | 316 nM | mimicked the rapid and robust antidepressant-like effect of racemic methylone | N/C (N/C indicates observed mean inhibition was <25%) | N/C (N/C indicates observed mean inhibition was <25%) | N/C (N/C indicates observed mean inhibition was <25%) | N/C (N/C indicates observed mean inhibition was <25%) |

From patent US20240327372A1, “PREPARATION OF PHENE[…] […] STEREOISOMERS THEREOF AND PRECURSORS THEREOF” (priority 2022, published 2024)
